Values quoted from earlier work in EP1147779A1, “A method for rendering ursodeoxycholic acid in soluble form pharmaceutical compositions” (BIOPROGRESS S.p.A., priority 2000, dated 2001).

Tests used:
[1] = ursodeoxycholic acid as such; background statement

Row | Compound | solubility [1] | toxicity (general statement, allowed by FAO/WHO as food additive) | passage of the intestinal mucosa / presence in plasma and urine (oral administration to humans)
1 | C[C@H](CCC(=O)O)[C@H]1CC[C@H]2[C@@H]3[C@@H](O)C[C@@H]4C[C@H](O)CC[C@]4(C)[C@H]3CC[C@]12C [Ursodeoxycholic acid] | practically insoluble | – | –
2 | β-cyclodextrin | – | no toxicity | does not overcome the barrier of the intestinal mucosa and is not found either in plasma or in urine
